Patent US20090118336A1, “PYRAZOLE DERIVATIVES AND THEIR USE AS PI3K INHIBITORS” (priority 2006, published 2009)

Tests used:
p110α Type Ia human PI3K = target: T1, p110α Type Ia human PI3K (Homo sapiens, UniProt P42336); test: In vitro PI3K enzyme assay (AlphaScreen), Test (a); type: biochemical; details: recombinant enzyme, PI(4,5)P2 substrate, ATP 4 μM, read-out: IC50 versus p110α Type Ia human PI3K
T1 construct: full length DNA of each of the p110α, p110β and p110δ Type Ia human PI3K p110 isoforms; 6-His; made in house
T1 sequence (P42336 whole entry, canonical isoform): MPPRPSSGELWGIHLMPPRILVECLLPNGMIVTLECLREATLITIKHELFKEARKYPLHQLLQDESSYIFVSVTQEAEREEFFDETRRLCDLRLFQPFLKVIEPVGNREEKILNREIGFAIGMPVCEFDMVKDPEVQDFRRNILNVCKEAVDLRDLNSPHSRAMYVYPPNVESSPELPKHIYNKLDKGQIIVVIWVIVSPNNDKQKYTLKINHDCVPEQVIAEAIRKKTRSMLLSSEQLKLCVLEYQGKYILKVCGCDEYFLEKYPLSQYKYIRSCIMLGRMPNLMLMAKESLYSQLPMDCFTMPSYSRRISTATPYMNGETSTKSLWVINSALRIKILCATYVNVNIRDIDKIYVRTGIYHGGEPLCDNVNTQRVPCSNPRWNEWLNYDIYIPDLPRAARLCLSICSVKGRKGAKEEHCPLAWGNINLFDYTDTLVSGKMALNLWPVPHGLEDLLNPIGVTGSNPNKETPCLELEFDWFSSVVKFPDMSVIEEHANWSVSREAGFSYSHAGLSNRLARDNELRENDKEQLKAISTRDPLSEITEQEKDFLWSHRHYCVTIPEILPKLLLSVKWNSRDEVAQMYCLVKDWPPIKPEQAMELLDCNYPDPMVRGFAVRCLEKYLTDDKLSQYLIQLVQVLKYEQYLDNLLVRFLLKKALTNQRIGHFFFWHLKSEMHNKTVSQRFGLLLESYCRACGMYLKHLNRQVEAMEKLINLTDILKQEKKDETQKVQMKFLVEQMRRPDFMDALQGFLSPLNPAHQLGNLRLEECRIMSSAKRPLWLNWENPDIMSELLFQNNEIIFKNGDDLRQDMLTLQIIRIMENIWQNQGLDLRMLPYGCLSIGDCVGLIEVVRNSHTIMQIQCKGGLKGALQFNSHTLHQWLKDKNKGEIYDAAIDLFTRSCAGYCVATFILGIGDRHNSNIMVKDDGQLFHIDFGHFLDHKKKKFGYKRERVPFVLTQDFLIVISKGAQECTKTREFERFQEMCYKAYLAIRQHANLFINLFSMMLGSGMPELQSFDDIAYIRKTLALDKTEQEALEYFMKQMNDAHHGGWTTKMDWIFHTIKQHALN
T1 sequence (P27986 whole entry partner, canonical isoform): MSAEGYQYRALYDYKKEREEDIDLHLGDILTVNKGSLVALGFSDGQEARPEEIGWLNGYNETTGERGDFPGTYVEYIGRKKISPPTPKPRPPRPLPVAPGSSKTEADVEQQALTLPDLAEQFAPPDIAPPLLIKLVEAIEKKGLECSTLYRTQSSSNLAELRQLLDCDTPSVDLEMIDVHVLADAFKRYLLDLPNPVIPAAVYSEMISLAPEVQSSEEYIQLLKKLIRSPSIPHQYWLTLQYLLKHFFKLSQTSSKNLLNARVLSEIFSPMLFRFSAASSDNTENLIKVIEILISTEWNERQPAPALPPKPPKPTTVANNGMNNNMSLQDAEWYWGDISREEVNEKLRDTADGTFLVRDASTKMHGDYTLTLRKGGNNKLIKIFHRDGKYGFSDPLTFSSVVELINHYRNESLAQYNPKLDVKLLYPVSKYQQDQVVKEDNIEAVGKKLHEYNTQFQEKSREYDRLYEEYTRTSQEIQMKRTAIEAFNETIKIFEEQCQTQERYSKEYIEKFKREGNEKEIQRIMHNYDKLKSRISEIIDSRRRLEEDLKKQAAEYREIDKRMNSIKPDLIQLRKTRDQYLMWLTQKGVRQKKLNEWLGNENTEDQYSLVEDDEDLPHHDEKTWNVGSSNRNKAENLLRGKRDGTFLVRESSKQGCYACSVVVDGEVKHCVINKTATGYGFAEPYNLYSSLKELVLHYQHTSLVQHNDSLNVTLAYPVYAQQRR
Source text: (a) In Vitro PI3K Enzyme Assay
The assay used AlphaScreen technology (Gray et al., Analytical Biochemistry, 2003, 313: 234-245) to determine the ability of test compounds to inhibit phosphorylation by recombinant Type I PI3K enzymes of the lipid PI(4,5)P2.
DNA fragments encoding human PI3K catalytic and regulatory subunits were isolated from cDNA libraries using standard molecular biology and PCR cloning techniques. The selected DNA fragments were used to generate baculovirus expression vectors. In particular, full length DNA of each of the p110α, p110β and p110δ Type Ia human PI3K p110 isoforms (EMBL Accession Nos. HSU79143, S67334, Y10055 for p110α, p110β and p110δ respectively) were sub-cloned into a pDEST10 vector (Invitrogen Limited, Fountain Drive, Paisley, UK). The vector is a Gateway-adapted version of Fastbac1 containing a 6-His epitope tag. […]
Biotinylated-DiC8-PI(3,4,5)P3 ([…]; Cell Signals Inc., Catalogue No. 107), recombinant purified GST-Grp1 PH protein (2.5 nM) and AlphaScreen Anti-GST donor and acceptor beads (100 ng; Packard Bioscience Limited, Station Road, Pangbourne, Berkshire, UK, Catalogue No. 6760603M) were added and the assay plates were left for about 5 to 20 hours at room temperature in the dark. The resultant signals arising from laser light excitation at 680 nm were read using a Packard AlphaQuest instrument. […]

[1] = target: mTOR PI kinase-related kinase (Homo sapiens, UniProt P42345); test: In vitro mTOR PI kinase-related kinase assay (AlphaScreen), Test (b); type: biochemical; details: recombinant mTOR (1362-2549), ATP 20 μM, read-out: IC50 versus mTOR PI kinase-related kinase
Sequence of mTOR PI kinase-related kinase (P42345 1362-2549): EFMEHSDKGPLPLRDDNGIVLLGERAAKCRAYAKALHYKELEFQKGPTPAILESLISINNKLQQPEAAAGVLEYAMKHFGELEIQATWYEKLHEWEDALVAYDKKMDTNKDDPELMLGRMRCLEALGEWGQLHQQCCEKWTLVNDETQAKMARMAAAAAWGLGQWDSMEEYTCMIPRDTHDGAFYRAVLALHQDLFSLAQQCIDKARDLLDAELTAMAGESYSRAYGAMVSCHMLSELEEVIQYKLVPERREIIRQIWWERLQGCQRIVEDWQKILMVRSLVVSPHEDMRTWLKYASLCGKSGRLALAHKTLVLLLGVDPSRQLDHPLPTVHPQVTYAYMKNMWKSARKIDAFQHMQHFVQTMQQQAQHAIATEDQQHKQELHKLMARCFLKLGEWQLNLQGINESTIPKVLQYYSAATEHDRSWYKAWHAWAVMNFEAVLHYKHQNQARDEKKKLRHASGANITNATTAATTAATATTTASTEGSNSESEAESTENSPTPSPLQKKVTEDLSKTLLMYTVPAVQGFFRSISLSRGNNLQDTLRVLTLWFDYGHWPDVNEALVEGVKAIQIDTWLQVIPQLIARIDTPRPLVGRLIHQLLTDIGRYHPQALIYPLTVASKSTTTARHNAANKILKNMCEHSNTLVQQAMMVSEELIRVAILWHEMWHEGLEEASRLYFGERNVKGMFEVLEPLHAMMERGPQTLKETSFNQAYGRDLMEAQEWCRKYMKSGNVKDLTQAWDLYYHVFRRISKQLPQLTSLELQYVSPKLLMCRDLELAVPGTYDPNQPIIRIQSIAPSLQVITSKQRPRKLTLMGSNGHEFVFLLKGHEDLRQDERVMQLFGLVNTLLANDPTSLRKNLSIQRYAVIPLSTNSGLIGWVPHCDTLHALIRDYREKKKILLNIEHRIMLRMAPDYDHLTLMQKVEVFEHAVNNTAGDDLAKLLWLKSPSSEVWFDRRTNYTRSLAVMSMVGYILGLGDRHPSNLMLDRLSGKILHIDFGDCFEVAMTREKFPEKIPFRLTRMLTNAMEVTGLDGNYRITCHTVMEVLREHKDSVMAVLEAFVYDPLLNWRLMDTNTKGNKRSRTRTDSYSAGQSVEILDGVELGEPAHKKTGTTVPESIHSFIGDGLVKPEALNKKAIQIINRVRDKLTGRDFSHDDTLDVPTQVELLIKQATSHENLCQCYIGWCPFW
Method: (b) In Vitro mTOR PI Kinase-Related Kinase Assay
The assay used AlphaScreen technology (Gray et al., Analytical Biochemistry, 2003, 313: 234-245) to determine the ability of test compounds to inhibit phosphorylation by recombinant mTOR. […]
Each reaction was stopped by the addition of 10 μl of a mixture of EDTA (50 mM), bovine serum albumin (BSA; 0.5 mg/ml) and Tris-HCl pH7.4 buffer (50 mM) containing p70 S6 Kinase (T389) 1A5 Monoclonal Antibody (Cell Signalling Technology, Catalogue No. 9206B) and AlphaScreen Streptavidin donor and Protein A acceptor beads (200 ng; Perkin Elmer, Catalogue No. 6760002B and 6760137R respectively) were added and the assay plates were left for about 20 hours at room temperature in the dark. The resultant signals arising from laser light excitation at 680 nm were read using a Packard Envision instrument.
Phosphorylated biotinylated peptide is formed in situ as a result of mTOR mediated phosphorylation. […] Upon laser light excitation at 680 nm, the donor bead: acceptor bead complex produces a signal that can be measured. […]
mTOR enzyme inhibition for a given test compound was expressed as an IC50 value.

Row | IC50 (p110α Type Ia human PI3K) [µM] | IC50 [1] [µM] | SMILES
1 | ~5 | ~40 | CC(=O)Nc1cc(-c2cncc(NS(C)(=O)=O)c2)n(C)n1 [Example 1, N-[5-(5-methanesulphonamidopyridin-3-yl)-1-methyl-1H-pyrazol-3-yl]acetamide]
2 | ~0.5 | ~2 | CC(=O)Nc1cc(-c2cncc(NS(=O)(=O)c3c(C)nn(C)c3Cl)c2)n(C)n1 [Example 3, N-{5-[5-(5-chloro-1,3-dimethyl-1H-pyrazol-4-ylsulphonamido)pyridin-3-yl]-1-methyl-1H-pyrazol-3-yl}acetamide]
